Experimental data from patent US12617762B2, “Carboxy derivatives with antiinflamatory properties” (Sitryx Therapeutics Limited, priority 2019, dated 2026).
Where two headings read alike, the source gives them in different places.

How the values were obtained:
[1] = Hepatocyte stability assay, human; assay type: in vitro ADME; conditions: human, hepatocytes; for hepatocyte CLint at 10 μM: Hepatocyte stability Clint; for half-life at 10 μM: Hepatocyte stability T½
Source text: (§1) Defrosted cryo-preserved hepatocytes (viability >70%) were used to determine the metabolic stability of a compound via calculation of intrinsic clearance (CIint; a measure of the removal of a compound from the liver in the absence of blood flow and cell binding). Clearance data are particularly important for in vitro work as they can be used in combination with in vivo data to predict the half-life and oral bioavailability of a drug.
(§2) The metabolic stability in hepatocytes assay involves a time-dependent reaction using both positive and negative controls. The cells were pre-incubated at 37° C. then spiked with test compound (and positive control); samples were taken at pre-determined time intervals and were analysed to monitor the change in concentration of the initial drug compound over 60 minutes. A buffer incubation reaction (with no hepatocytes present) acted as a negative control and two cocktail solutions, containing compounds with known high and low clearance values (verapamil/7-hydroxycoumarin and propranolol/diltiazem), acted as positive controls. • 1. The assay was run with a cell concentration of 0.5×10^6 cells/mL in Leibovitz buffer. • 2. All compounds and controls were run in duplicate. • 3. Compound concentration was 10 μM. • 4. All compounds and controls were incubated with both cells and buffer to show turnover was due to hepatic metabolism. • 5. All wells on the incubation plate had 326.7 μL of either cells or buffer added. • 6. Prior to assay, cell and buffer-only incubation plates were preincubated for 10 mins at 37° C. • 7. The assay was initiated by adding compounds, 3.3 μL of 1 mM in 10% DMSO—90% Buffer; final DMSO concentration was 0.1%. • 8. Samples were taken at regular timepoints (0, 5, 10, 20, 40, 60 min) until 60 mins. • 9. Sample volume was 40 μL and was added to 160 μL of crash solvent (acetonitrile with internal standard) and stored on ice. • 10. At the end of the assay, the crash plates were centrifuged at 3500 rpm for 20 mins at 4° C. • 11. 80 μL of clear supernatant was removed and mixed with 80 μL of deionised water before being analysed by LC-MS/MS.
(§3) Raw LC-MS/MS data was exported to, and analysed in, Microsoft Excel for determination of intrinsic clearance. The percentage remaining of a compound was monitored using the peak area of the initial concentration as 100%. Intrinsic clearance and half-life values were calculated using a graph of the natural log of percentage remaining versus the time of reaction in minutes.

[2] = Hepatocyte stability assay, mouse; assay type: in vitro ADME; conditions: mouse, hepatocytes; for hepatocyte CLint at 10 μM: Hepatocyte stability Clint; for half-life at 10 μM: Hepatocyte stability T½
Source text: as §1, §2, §3

[3] = test system: IL-1β cytokine output from THP-1s; test: THP-1 AlphaLISA IL-1β cytokine inhibition assay; assay type: cell-based; conditions: LPS then nigericin
Description: Measuring Inhibitory Effects on IL-1β Cytokine Output from THP-1s
The cytokine inhibition profiles of compounds of formula (I) were determined in a differentiated THP-1 cell assay. All assays were performed in RPMI-1640 growth medium (Gibco), supplemented with 10% fetal bovine serum (FBS; Gibco), 1% penicillin-streptomycin and 1% sodium pyruvate unless specified otherwise. The IL-1β cytokine inhibition assay was run in a background of differentiated THP-1 cells as described below. All reagents described were from Sigma-Aldrich unless specified otherwise. Compounds were prepared as 10 mM DMSO stocks.
THP-1 cells were expanded as a suspension up to 80% confluence in appropriate growth medium. Cells were harvested, suspended, and treated with an appropriate concentration of phorbol 12-myristate 13-acetate (PMA) over a 72 hr period (37° C./5% CO2).
Following 72 hrs of THP-1 cell incubation, cellular medium was removed and replaced with fresh growth media containing 1% of FBS. Working concentrations of compounds were prepared separately in 10% FBS treated growth medium and pre-incubated with the cells for 30 minutes (37° C./5% CO2). Following the 30 minute compound pre-incubation, THP-1s were treated with an appropriate concentration of LPS and the cells were subsequently incubated for a 24 hr period (37° C./5% CO2). An appropriate final concentration of Nigericin was then dispensed into the THP-1 plates and incubated for 1 hour (37° C./5% CO2) before THP-1 supernatants were harvested and collected in separate polypropylene 96-well holding plates.
Reagents from an IL-1β and IL-6 commercial kit (Perkin Elmer) were prepared and run according to the manufacturer's instructions. Subsequently, fluorescence signal detection in a microplate reader was measured (EnVision® Multilabel Reader, Perkin Elmer).
Percentage inhibition was calculated per cytokine by normalising the sample data to the high and low controls used within each plate (+/− LPS respectively).

[4] = test system: NRF2 (nuclear factor erythroid 2-related factor 2); test: NRF2 +/-GSH activation assay (DiscoverX PathHunter NRF2 translocation kit, U2OS cells); assay type: cell-based; conditions: for NRF2 activation +GSH Emax / NRF2 activation −GSH Emax: normalised to DMF high control
Description: Measuring Compound Activation Effects on the Anti-Inflammatory Transcription Factor NRF2 in DiscoverX PathHunter NRF2 Translocation Kit
Potency and efficacy of compounds of formula (I) against the target of interest to activate NRF2 (nuclear factor erythroid 2-related factor 2) were determined using the PathHunter NRF2 translocation kit (DiscoverX). The NRF2 translocation assay was run using an engineered recombinant cell line, utilising enzyme fragment complementation to determine activation of the Keap1-NRF2 protein complex and subsequent translocation of NRF2 into the nucleus. Enzyme activity was quantified using a chemiluminescent substrate consumed following the formation of a functional enzyme upon PK-tagged NRF2 translocation into the nucleus.
The assay was run under both +/−GSH (glutathione) conditions to determine the sensitivity of the compounds' NRF2-activating abilities to attenuation by GSH.
Additionally, a defined concentration of DMF was used as the ‘High’ control to normalise test compound activation responses to.
U2OS PathHunter eXpress cells were thawed from frozen prior to plating. Following plating, U2OS cells were incubated for 24 hrs (37° C./5% CO2) in commercial kit provided cell medium.
Following 24 hrs of U2OS incubation, cells were directly treated with an appropriate final concentration of compound, for −GSH conditions or, for +GSH conditions, an intermediate plate containing 6× working concentrations of compound stocks was prepared in a 6 mM working concentration of GSH solution (solubilised in sterile PBS). Following a 30 minute compound-GSH pre-incubation (37° C./5% CO2) for +GSH treatment, plated U2OS cells were incubated with an appropriate final concentration of compound and GSH.
Following compound (+/−GSH) treatment, the U2OS plates were incubated for a further 6 hours (37° C./5% CO2) before detection reagent from the PathHunter NRF2 commercial kit was prepared and added to test plates according to the manufacturer's instructions. Subsequently, the luminescence signal detection was measured in a microplate reader (PHERAstar®, BMG Labtech).
Percentage activation was calculated by normalising the sample data to the high and low controls used within each plate (+/−DMF).

[5] = Homo sapiens, THP-1, differentiated THP-1 cells
[6] = +GSH, 30 minute compound-GSH pre-incubation, read-out: NRF2 activation +GSH EC50
[7] = −GSH, U2OS PathHunter cells, 6 hours compound treatment, read-out: NRF2 activation −GSH EC50

| Compound | hepatocyte CLint at 10 μM [1] [µL/min/1e6 cells] | half-life at 10 μM [1] [min] | hepatocyte CLint at 10 μM [2] [µL/min/1e6 cells] | half-life at 10 μM [2] [min] | IC50 [3, 5] [µM] | EC50 [4, 6] [µM] | NRF2 activation +GSH Emax ([4]; +GSH) [%] | EC50 [4, 7] [µM] | NRF2 activation −GSH Emax ([4]; −GSH) [%] | IC50 ([3]; differentiated THP-1 cells) [µM] |
| --- | --- | --- | --- | --- | --- | --- | --- | --- | --- | --- |
| C=C(Cc1nc(-c2cccc(CCCC)c2)no1)C(=O)O [Example 27, 2-((3-(3-butylphenyl)-1,2,4-oxadiazol-5-yl)methyl)acrylic acid] | 156 | 8 | 281 | 5 | 29.6 |  |  |  |  |  |
| C=C(Cc1nc(CCCCCCCC)cs1)C(=O)O [Example 38, 2-((4-octylthiazol-2-yl)methyl)acrylic acid] | > 447 | < 3 | 204 | 9 | 7.8 |  |  |  |  |  |
| C=C(Cc1noc(C(F)(F)c2ccc(C(F)(F)F)cc2)n1)C(=O)O [Example 97, 2-((5-(difluoro(4-(trifluoromethyl)phenyl)methyl)-1,2,4-oxadiazol-3-yl)methyl)acrylic acid] | 13 | 125 | 79 | 15 | 22.1 |  |  |  |  |  |
| C=C(Cc1nc(C(F)(F)c2ccc(F)cc2)no1)C(=O)O [Example 125, 2-((3-(difluoro(4-fluorophenyl)methyl)-1,2,4-oxadiazol-5-yl)methyl)acrylic acid] |  |  |  |  | > 100 | > 100 | 26 | > 100 | 37 |  |
| C=C(Cc1nc(-c2ccc(OCCC)c(Cl)c2)no1)C(=O)O [Example 130, 2-((3-(3-chloro-4-propoxyphenyl)-1,2,4-oxadiazol-5-yl)methyl)acrylic acid] |  |  |  |  | > 100 | 37.4 | 129 | 36.5 | 177 |  |
| C=C(Cc1nc(-c2ccc(OC3CCC3)cc2)no1)C(=O)O [Example 142, 2-((3-(4-cyclobutoxyphenyl)-1,2,4-oxadiazol-5-yl)methyl)acrylic acid] |  |  |  |  | > 100 | 26.9 | 168 | 23.3 | 189 |  |
| C=C(Cc1nc(-c2ccc(OC3CCCC3)cc2)no1)C(=O)O [Example 143, 2-((3-(4-cyclopentyloxyphenyl)-1,2,4-oxadiazol-5-yl)methyl)acrylic acid] |  |  |  |  | 22.1 | 14.5 | 195 | 12 | 243 |  |
| C=C(Cc1nc(-c2ccc(O[C@H](C)CC)cc2)no1)C(=O)O [Example 144, (R)-2-((3-(4-(sec-butoxy)phenyl)-1,2,4-oxadiazol-5-yl)methyl)acrylic acid] |  |  |  |  |  | 31.1 | 139 | 28.4 | 167 | > 100 |
| C=C(Cc1nc(C2(c3ccc([S+]([O-])C(F)(F)F)cc3)CC2)no1)C(=O)O (centres unmarked) [Example 157, 2-((3-(1-(4-((trifluoromethyl)sulfinyl)phenyl)cyclopropyl)-1,2,4-oxadiazol-5-yl)methyl)acrylic acid] |  |  |  |  | > 100 | > 100 | −5 | > 100 | 41 |  |
| C=C(Cc1nc(-c2ccc(SC(F)(F)F)cc2)no1)C(=O)O [Example 158, 2-((3-(4-((trifluoromethyl)thio)phenyl)-1,2,4-oxadiazol-5-yl)methyl)acrylic acid] |  |  |  |  | > 31.6 | 2.9 | 196 | 2.6 | 189 |  |
| C=C(Cc1nc(-c2ccc(OCCCOC)cc2)no1)C(=O)O [Example 159, 2-((3-(4-(3-methoxypropoxy)phenyl)-1,2,4-oxadiazol-5-yl)methyl)acrylic acid] |  |  |  |  | > 100 | 39.9 | 85 | 34.4 | 87 |  |
| C=C(Cc1nc(-c2ccc(OCCCC)c(Cl)c2)no1)C(=O)O [Example 160, 2-((3-(4-butoxy-3-chlorophenyl)-1,2,4-oxadiazol-5-yl)methyl)acrylic acid] |  |  |  |  | > 10 | 4.1 | 238 | 5 | 216 |  |
| C=C(Cc1nc(-c2ccc(OCCCC)c(C(F)(F)F)c2)no1)C(=O)O [Example 161, 2-((3-(4-butoxy-3-(trifluoromethyl)phenyl)-1,2,4-oxadiazol-5-yl)methyl)acrylic acid] |  |  |  |  | > 10 | 7.2 | 114 | 25.1 | 258 |  |
| C=C(Cc1nc(Cc2ccc(OC)c(Cl)c2)no1)C(=O)O [Example 163, 2-((3-(3-chloro-4-methoxybenzyl)-1,2,4-oxadiazol-5-yl)methyl)acrylic acid] |  |  |  |  | > 100 | > 100 | −10 | 61.4 | 61 |  |
| C=C(Cc1nc(Cc2cc(F)c(Cl)c(F)c2)no1)C(=O)O [Example 164, 2-((3-(4-chloro-3,5-difluorobenzyl)-1,2,4-oxadiazol-5-yl)methyl)acrylic acid] |  |  |  |  | > 100 | 63.4 | 5.5 | 42.7 | 62 |  |
| C=C(Cc1nc(Cc2ccc(C)c(Cl)c2)no1)C(=O)O [Example 165, 2-((3-(3-chloro-4-methylbenzyl)-1,2,4-oxadiazol-5-yl)methyl)acrylic acid] |  |  |  |  | > 100 | > 100 | 16 | > 100 | 25 |  |
